Data taken from US20260138948A1, “N-SUBSTITUTED INDOLES AS 5-HYDROXYTRYPTAMINE (5-HT) SEROTONIN RECEPTOR AGONISTS AND ANTAGONISTS” (Terran Biosciences Inc., priority 2021, published 2026).

How the values were obtained:
5-HT2B receptor = molecular target: T1, 5-HT2B receptor (Homo sapiens, UniProt P41595); assay: Calcium mobilization assay, agonist format, 5-HT2B; type: cell-based; details: % activity relative to control ligand, read-out: 5-HT2B agonist efficacy @5 µM
T1 construct: host or cells: unnamed cell lines
Procedure: (§1) Protocol—in vitro testing at select 5-hydroxytryptamine (5-HT; serotonin) receptors was conducted.
(§2) • 1. Cell lines were expanded from freezer stocks according to standard procedures. • 2. Cells were seeded in a total volume of 20 μL into black-walled, clear-bottom, Poly-D-lysine coated 384-well microplates and incubated at 37° C. for the appropriate time prior to testing.
(§3) • 1. Assays were performed in 1× Dye Loading Buffer consisting of 1× Dye, 1× Additive A and • 2.5 mM Probenecid in HBSS/20 mM Hepes. Probenicid was prepared fresh. • 2. Cells were loaded with dye prior to testing. Media was aspirated from cells and replaced with 20 μL Dye Loading Buffer. • 3. Cells were incubated for 30-60 minutes at 37° C.
(§4) • 1. For agonist determination, cells were incubated with sample to induce response. • 2. After dye loading, cells were removed from the incubator and 10 μL HBSS/20 mM Hepes was added. 3× vehicle was included in the buffer when performing agonist dose curves to define the EC80 for subsequent antagonist assays. Cells were incubated for 30 minutes at room temperature in the dark to equilibrate plate temperature. • 3. Intermediate dilution of sample stocks was performed to generate 4× sample in assay buffer. • 4. Compound agonist activity was measured on a FLIPR Tetra (MDS). Calcium mobilization was monitored for 2 minutes and 10 μL 4× sample in HBSS/20 mM Hepes was added to the cells 5 seconds into the assay.
(§5) • 1. Compound activity was analyzed using CBIS data analysis suite (ChemInnovation, CA). • 2. For agonist mode assays, percentage activity is calculated using the following formula: % Activity=100%×(mean RFU of test sample−mean RFU of vehicle control)/(mean MAX RFU control ligand −mean RFU of vehicle control). • 3. For positive allosteric mode assays, percentage modulation was calculated using the following formula: % Modulation=100%×((mean RFU of test sample−mean RFU of EC20 control)/(mean RFU of MAX control ligand −mean RFU of EC20 control)). • 4. For antagonist and negative allosteric modulation mode assays, percentage inhibition is calculated using the following formula: % Inhibition=100%×(1−(mean RFU of test sample−mean RFU of vehicle control)/(mean RFU of EC80 control−mean RFU of vehicle control)).

5-HT2A receptor [1] = molecular target: T2, 5-HT2A receptor (Homo sapiens, UniProt P28223); assay: Calcium mobilization assay, agonist format, 5-HT2A; type: cell-based; details: % activity relative to control ligand, read-out: 5-HT2A agonist efficacy @10 µM
T2 construct: host or cells: unnamed cell lines
Procedure: as §1, §2, §3, §4, §5

5-HT2A receptor [2] = molecular target: T2, 5-HT2A receptor; assay: Calcium mobilization assay, antagonist format, 5-HT2A; type: cell-based; details: @100 nM; agonist challenge at EC80
Procedure: as §1, §2, §3
(§6) • 1. For antagonist determination, cells were pre-incubated with sample followed by agonist challenge at the EC80 concentration. • 2. Intermediate dilution of sample stocks was performed to generate 3× sample in assay buffer. • 3. After dye loading, cells were removed from the incubator and 10 μL 3× sample was added. Cells were incubated for 30 minutes at room temperature in the dark to equilibrate plate temperature. Vehicle concentration was 1%. • 4. Compound antagonist activity was measured on a FLIPR Tetra (MDS). Calcium mobilization was monitored for 2 minutes and 10 μL EC80 agonist in HBSS/20 mM Hepes was added to the cells 5 seconds into the assay.
as §5
Compounds were evaluated as 5-HT2A antagonists at 100 nM (one hundred nanomolar), or may be evaluated at a higher concentration. For research comparative purposes, a literature compound—(R)-1-(5-methoxy-1H-indol-1-yl)-N,N-dimethylpropan-2-amine (AAZ-A-154) (Cell 2021, 184, 2779-2792.e18)—was included in the screening assays. Additionally, 5-hydroxytryptamine/serotonin (5-HT) was included in the screening assay as a positive control agonist, and Altanserin HCl was included as a 5-HT2A antagonist positive control.

5-HT2C receptor = molecular target: T3, 5-HT2C receptor (Homo sapiens, UniProt P28335); assay: Calcium mobilization assay, antagonist format, 5-HT2C; type: cell-based; details: for inhibition at 10 µM: agonist challenge at EC80; for antagonism of the 5-HT2C receptor: 10 μM (ten micromolar)
T3 construct: host or cells: unnamed cell lines
T3 sequence (P28335 33-458): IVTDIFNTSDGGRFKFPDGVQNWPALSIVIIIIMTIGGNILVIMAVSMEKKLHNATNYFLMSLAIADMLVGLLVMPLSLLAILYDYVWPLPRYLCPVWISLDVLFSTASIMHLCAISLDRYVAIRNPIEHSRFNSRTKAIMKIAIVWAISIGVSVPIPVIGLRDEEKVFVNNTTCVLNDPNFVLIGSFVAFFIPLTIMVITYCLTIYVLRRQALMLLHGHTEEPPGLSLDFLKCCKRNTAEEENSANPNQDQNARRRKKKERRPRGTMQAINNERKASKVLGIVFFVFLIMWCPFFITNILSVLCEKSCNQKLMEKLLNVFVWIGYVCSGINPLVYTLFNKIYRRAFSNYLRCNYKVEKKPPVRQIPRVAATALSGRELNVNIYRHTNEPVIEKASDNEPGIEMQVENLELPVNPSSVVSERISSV
Procedure: as §1, §2, §3, §6, §5
[…] For research comparative purposes, a literature compound—(R)-1-(5-methoxy-1H-indol-1-yl)-N,N-dimethylpropan-2-amine (AAZ-A-154) (Cell 2021, 184, 2779-2792.e18)—was included in the screening assays. Additionally, 5-hydroxytryptamine/serotonin (5-HT) was included in the screening assay as a positive control agonist, and SB242084 was used in the screening assay as a literature 5-HT2C antagonist positive control. […] Compounds 2, 3 and 93 each achieved greater than 75% antagonism of the 5-HT2C receptor, with compounds 3 and 93 achieving approximately 98% and 97% antagonism, respectively.

5HT2A sensor = details: general statement on known hallucinogens and non-hallucinogenic congeners; cited from earlier work
[3] = Metabolic stability in human liver microsomes; type: in vitro ADME; details: for difference in half-life and intrinsic clearance compared with reference compound (R)-1-(5-methoxy-1H-indol-1-yl)-N,N-dimethylpropan-2-amine / microsomal CLint at 1 μM: human liver microsomes; for difference in half-life and intrinsic clearance compared with reference compound (R)-1-(5-methoxy-1H-indol-1-yl)-N,N-dimethylpropan-2-amine: comment on Table 2; for half-life at 1 μM / microsomal CLint at 1 μM / CLint scaled at 1 μM: liver microsomes (pooled); for half-life at 1 μM: human liver microsomes 0.5 mg/mL, test compound 1.0 μM, 37° C., NADPH; for microsomal CLint at 1 μM: intrinsic clearance = 0.693/T1/2/mg microsome protein per mL, read-out: CLint(mic); for CLint scaled at 1 μM: human, scaled from CLint(mic) with 45 mg microsomal protein/g liver and 20 g liver/kg
Procedure: The test compound at 1.0 μM in singlet, or positive controls including Testosterone (CYP3A4 substrate), Propafenone (CYP2D6 substrate) or Diclofenac (CYP2C9 substrate) was incubated with the liver microsomes (Corning, Xenotech, or other credible vendor, pooled from multiple donors) at 0.5 mg/mL, respectively. The mixture was warmed up at 37° C. for 10 minutes and the reactions were initiated by the addition of a NADPH regenerating system (˜1.0 mM). The test compound incubated with the liver microsomes at 37° C. without the NADPH regenerating system served as the negative control reaction.
The reaction samples were removed at multiple time points (such as 0, 5, 15, 30, 45 and 60 minutes) and the sample without NADPH (NCF) was removed at 60 minutes. All the samples were immediately mixed with cold acetonitrile containing internal standard (IS) to stop the reaction.
Samples were analyzed by LC/MS/MS and the disappearance of test compound were assessed base on peak area ratios of analyte/IS (no standard curve). The microsomal intrinsic clearance and T1/2 values were calculated using the following equation: […]
The microsomal intrinsic clearance and T1/2 values were calculated using the following equation: […]
In these experiments the comparator compound was a suitable reference standard. In one embodiment the comparator compound was (R)-1-(5-methoxy-1H-indol-1-yl)-N,N-dimethylpropan-2-amine.

T2 sequence (P28223 whole entry): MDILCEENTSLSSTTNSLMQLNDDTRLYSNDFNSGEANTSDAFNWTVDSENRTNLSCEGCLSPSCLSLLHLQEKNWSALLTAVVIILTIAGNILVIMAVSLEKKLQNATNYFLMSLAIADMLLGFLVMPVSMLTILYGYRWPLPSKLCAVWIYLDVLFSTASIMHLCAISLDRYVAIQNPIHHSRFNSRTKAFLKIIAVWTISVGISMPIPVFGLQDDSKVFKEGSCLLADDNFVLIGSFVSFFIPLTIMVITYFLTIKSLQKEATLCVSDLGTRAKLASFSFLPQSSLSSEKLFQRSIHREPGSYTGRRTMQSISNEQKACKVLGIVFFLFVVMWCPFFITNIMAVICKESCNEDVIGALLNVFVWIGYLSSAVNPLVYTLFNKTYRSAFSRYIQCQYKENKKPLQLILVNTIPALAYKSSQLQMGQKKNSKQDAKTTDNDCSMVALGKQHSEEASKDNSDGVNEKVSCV
T1 sequence (P41595 whole entry): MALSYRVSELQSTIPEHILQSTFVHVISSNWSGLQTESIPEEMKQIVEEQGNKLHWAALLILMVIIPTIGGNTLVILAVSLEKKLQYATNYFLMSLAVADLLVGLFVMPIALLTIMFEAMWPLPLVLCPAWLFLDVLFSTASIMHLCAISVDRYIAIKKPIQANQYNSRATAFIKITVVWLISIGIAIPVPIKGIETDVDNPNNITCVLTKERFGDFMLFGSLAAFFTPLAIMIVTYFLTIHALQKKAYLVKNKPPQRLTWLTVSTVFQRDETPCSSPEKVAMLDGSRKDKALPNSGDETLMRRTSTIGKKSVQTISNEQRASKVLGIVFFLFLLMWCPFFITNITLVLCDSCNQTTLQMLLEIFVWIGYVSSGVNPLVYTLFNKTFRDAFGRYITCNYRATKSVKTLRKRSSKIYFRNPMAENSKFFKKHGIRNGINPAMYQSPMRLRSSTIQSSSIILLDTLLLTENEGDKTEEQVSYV

Row | Structure (SMILES) | activation at 5 µM (5-HT2B receptor) [%] | activation at 10 µM (5-HT2A receptor [1]) [%] | inhibition at 0.1 µM (5-HT2A receptor [2]) [%] | inhibition at 10 µM (5-HT2C receptor) [%] | activation of the 5HT2A sensor assay in agonist mode (5HT2A sensor) | other results
1 | COc1ccn2c(CC(C)N(C)C)cnc2c1 (racemic) [Compound 91, (R/S)-1-(7-methoxyimidazo[1,2-a]pyridin-3-yl)-N,N-dimethylpropan-2-amine] | 1 | 0.6 | -3.3 | 6.1 |  | 
2 | COc1ccn2c(CC(C)N(C)C)ncc2c1 (racemic) [Compound 92, (R/S)-1-(7-methoxyimidazo[1,5-a]pyridin-3-yl)-N,N-dimethylpropan-2-amine] | 2 | 0.3 | 1.6 | 7.2 |  | 
3 | CC(Cc1ncn2cc(F)ccc12)N(C)C (racemic) [Compound 93, (R/S)-1-(6-fluoroimidazo[1,5-a]pyridin-1-yl)-N,N-dimethylpropan-2-amine] | 2.7 | 1.8 | 5.7 | 97.1 |  | antagonism of the 5-HT2C receptor (5-HT2C receptor): ~97%
4 | CCN(CC)C(=O)[C@@H]1C=C2c3cccc4[nH]c(Br)c(c34)C[C@H]2N(C)C1 [BOL148] |  |  |  |  | do not activate the 5HT2A sensor assay in agonist mode | 
5 | C[C@H](Cn1ccc2cc(OC3CC3)ccc21)N(C)C [Compound 1, (R)-1-(5-cyclopropoxy-1H-indol-1-yl)-N,N-dimethylpropan-2-amine] | -0.7 | -1.4 | -13.2 | 20.7 |  | 
6 | C[C@H](Cn1ccc2cc(S(F)(F)(F)(F)F)ccc21)N(C)C [Compound 2, (2R)-N,N-dimethyl-1-[5-(pentafluoro-λ^6-sulfanyl)indol-l-yl]propan-2-amine] | 6.4 | 4.4 | -0.8 | 76.4 |  | 
7 | C[C@H](Cn1ccc2c3c(ccc21)OCCC3)N(C)C [Compound 3, (R)-1-(8,9-dihydropyrano[3,2-e]indol-3(7H)-yl)-N,N-dimethylpropan-2-amine] | 1 | 9.7 | -7.3 | 98.1 |  | antagonism of the 5-HT2C receptor (5-HT2C receptor): approximately 98%
8 | [2H]C([2H])([2H])N(C([2H])([2H])[2H])[C@]([2H])(C([2H])([2H])[2H])C([2H])([2H])n1ccc2cc(OC)ccc21 [Compound 6, (2R)-1,1,1,2,3,3-hexadeuterio-3-(5-methoxyindol-1-yl)-N,N-bis(trideuteriomethyl)propan-2-amine] |  |  |  |  |  | difference in half-life and intrinsic clearance compared with reference compound (R)-1-(5-methoxy-1H-indol-1-yl)-N,N-dimethylpropan-2-amine [3]: significant and beneficial differences in half-life and intrinsic clearance; half-life at 1 μM [3]: 1.82 h; microsomal CLint at 1 μM [3]: 12.7 µL/min/mg; CLint scaled at 1 μM [3]: 11.4 mL/min/kg
9 | CCN(CC)CCc1c[nH]c2cc(F)ccc12 [Compound 6-F-DET] |  |  |  |  | do not activate the 5HT2A sensor assay in agonist mode | 
10 | COc1ccc2c(CCN(C)C)c[nH]c2c1 [Compound 6-MeO-DMT] |  |  |  |  | do not activate the 5HT2A sensor assay in agonist mode | 
11 | [2H]C([2H])([2H])Oc1ccc2c(ccn2C([2H])([2H])[C@]([2H])(N(C)C)C([2H])([2H])[2H])c1 [Compound 151, (2R)-1,1,1,2,3,3-hexadeuterio-N,N-dimethyl-3-[5-(trideuteriomethoxy)indol-1-yl]propan-2-amine] |  |  |  |  |  | difference in half-life and intrinsic clearance compared with reference compound (R)-1-(5-methoxy-1H-indol-1-yl)-N,N-dimethylpropan-2-amine [3]: most significant difference in half-life and intrinsic clearance ratio; half-life at 1 μM [3]: 2 h; microsomal CLint at 1 μM [3]: 11.5 µL/min/mg; CLint scaled at 1 μM [3]: 10.4 mL/min/kg
12 | [2H]C([2H])([2H])Oc1ccc2c(ccn2C([2H])([2H])[C@]([2H])(N(C([2H])([2H])[2H])C([2H])([2H])[2H])C([2H])([2H])[2H])c1 [Compound 152, (2R)-1,1,1,2,3,3-hexadeuterio-3-[5-(trideuteriomethoxy)indol-1-yl]-N,N-bis(trideuteriomethyl)propan-2-amine] |  |  |  |  |  | difference in half-life and intrinsic clearance compared with reference compound (R)-1-(5-methoxy-1H-indol-1-yl)-N,N-dimethylpropan-2-amine [3]: significant and beneficial differences in half-life and intrinsic clearance; half-life at 1 μM [3]: 1.91 h; microsomal CLint at 1 μM [3]: 12.4 µL/min/mg; CLint scaled at 1 μM [3]: 11.1 mL/min/kg
13 | CN(C)CCc1c[nH]c2ccccc12 [DMT, N,N-dimethyltryptamine] |  |  |  |  | activate the 5HT2A sensor assay in agonist mode | 
14 | COc1cc(CC(C)N)c(OC)cc1I (stereo not shown) [DOI, 2,5-dimethoxy-4-iodoamphetamine] |  |  |  |  | activate the 5HT2A sensor assay in agonist mode | 
15 | O=C(c1ccc(F)cc1)C1CCN(CCn2c(=O)[nH]c3ccccc3c2=O)CC1 [Ketanserin, ketanserin] |  |  |  |  | do not activate the 5HT2A sensor assay in agonist mode | 
16 | CN[C@H](C)Cc1ccc2c(c1)OCO2 [L-MDMA] |  |  |  |  | do not activate the 5HT2A sensor assay in agonist mode | 
17 | CCN(CC)C(=O)[C@@H]1C=C2c3cccc4[nH]cc(c34)C[C@H]2N(C)C1 [LSD, lysergic acid diethylamide] |  |  |  |  | activate the 5HT2A sensor assay in agonist mode | 
